# In US20250197409A1, “BIFUNCTIONAL COMPOUND AND PHARMACEUTICAL COMPOSITION COMPRISING THE BIFUNCTIONAL COMPOUND, AND METHOD FOR TREATING ANDROGEN RECEPTOR RELATED DISEASE BY USING THE SAME” (ANHORN MEDICINES CO., LTD., priority 2022, published 2025):
# Read-outs that look alike come from different tables or passages of the source.
# Target: T1, androgen receptor (Homo sapiens, UniProt P10275, T878A)
# T1 construct: host or cells: LNCaP.FGC
# Assay: Androgen receptor degradation assay using Western blot analysis
# Type: cell-based
# Method in brief: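 LNCaP.FGC cells (2×10^5/well) treated with 10-fold serial dilutions in RPMI from 100 nM stock; untreated cells as negative control. AR Western signal normalized to GAPDH, expressed as % remaining versus untreated (100%). DC50 derived from calibration curve of serial dilutions.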
# [1] = 24 h, LNCaP.FGC cells, 100 nM, 24 hr, normalized to GAPDH, untreated cells = 100%; read-out: Androgen Receptor Remaining (%)
# [2] = LNCaP.FGC cells, serial 10x dilutions from 100 nM; read-out: AR DC50 (concentration needed for 50% AR degradation)
# [3] = 24 h, read-out: Androgen Receptor Remaining (%), LNCaP.FGC cells, 100 nM, 24 hr, normalized to GAPDH, untreated cells = 100%
# [4] = read-out: AR DC50 (concentration needed for 50% AR degradation); LNCaP.FGC cells, serial 10x dilutions from 100 nM
# [5] = LNCaP.FGC cells, 100 nM, 24 hr, normalized to GAPDH, untreated cells = 100%
# T1 sequence (P10275 whole entry T878A): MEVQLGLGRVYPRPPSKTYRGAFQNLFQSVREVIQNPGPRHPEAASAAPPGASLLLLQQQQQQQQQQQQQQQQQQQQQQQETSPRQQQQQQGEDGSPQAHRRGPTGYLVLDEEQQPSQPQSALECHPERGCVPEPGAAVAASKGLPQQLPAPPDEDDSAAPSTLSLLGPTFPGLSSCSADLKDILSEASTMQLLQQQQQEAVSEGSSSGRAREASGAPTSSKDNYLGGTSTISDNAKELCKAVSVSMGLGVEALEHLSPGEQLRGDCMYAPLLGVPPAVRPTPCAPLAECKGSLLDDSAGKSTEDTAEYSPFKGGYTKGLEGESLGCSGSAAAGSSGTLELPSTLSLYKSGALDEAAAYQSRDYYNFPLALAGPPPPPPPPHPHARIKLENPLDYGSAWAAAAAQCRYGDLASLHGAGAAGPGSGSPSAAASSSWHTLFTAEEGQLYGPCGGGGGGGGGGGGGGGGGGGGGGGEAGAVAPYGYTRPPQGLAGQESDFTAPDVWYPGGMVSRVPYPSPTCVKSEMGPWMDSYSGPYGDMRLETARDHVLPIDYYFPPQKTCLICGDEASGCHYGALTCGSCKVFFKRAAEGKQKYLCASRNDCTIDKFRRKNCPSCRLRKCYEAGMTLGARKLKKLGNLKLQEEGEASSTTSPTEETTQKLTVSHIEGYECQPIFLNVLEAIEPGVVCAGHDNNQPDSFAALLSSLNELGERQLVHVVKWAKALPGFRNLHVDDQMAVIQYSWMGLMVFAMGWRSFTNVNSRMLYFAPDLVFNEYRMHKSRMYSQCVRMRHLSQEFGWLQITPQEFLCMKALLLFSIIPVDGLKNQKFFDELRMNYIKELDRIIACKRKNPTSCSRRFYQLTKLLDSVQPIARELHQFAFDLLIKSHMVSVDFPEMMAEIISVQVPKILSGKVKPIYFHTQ
# T1 sequence (Q96SW2 whole entry partner): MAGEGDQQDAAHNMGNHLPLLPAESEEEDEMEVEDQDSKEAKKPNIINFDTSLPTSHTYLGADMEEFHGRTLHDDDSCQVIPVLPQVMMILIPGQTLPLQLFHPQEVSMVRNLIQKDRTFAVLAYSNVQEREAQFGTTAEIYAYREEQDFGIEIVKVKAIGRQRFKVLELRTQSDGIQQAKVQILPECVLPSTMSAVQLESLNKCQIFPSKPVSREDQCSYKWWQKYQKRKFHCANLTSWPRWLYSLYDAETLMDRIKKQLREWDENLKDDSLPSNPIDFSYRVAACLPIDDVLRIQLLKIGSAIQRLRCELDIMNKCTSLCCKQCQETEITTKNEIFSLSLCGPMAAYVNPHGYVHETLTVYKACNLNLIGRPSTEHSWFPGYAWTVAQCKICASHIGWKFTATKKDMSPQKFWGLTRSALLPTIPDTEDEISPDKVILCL
SMILES,remaining activity at 0.1 µM [3] [%],DC50 [4] [nM],further results
Cn1c2c(c3ccc(OCCCN4CCN(c5ccc(C(=O)N[C@H]6C(C)(C)[C@H](Oc7ccc(C#N)c(Cl)c7)C6(C)C)nn5)CC4)cc31)C(=O)N(C1CCC(=O)NC1=O)C2=O (stereo partly drawn) [Compound 40],,,remaining activity at 0.1 µM [1]: 29%; DC50 [2]: > 100 nM
CC(C)n1c2c(c3cc(OCCN4CCN(c5ccc(C(=O)N[C@H]6C(C)(C)[C@H](Oc7ccc(C#N)c(Cl)c7)C6(C)C)cc5)CC4)ccc31)C(=O)N(C1CCC(=O)NC1=O)C2=O (stereo partly drawn) [Compound 17],127,,
CCn1c2c(c3ccc(OCCN4CC=C(c5ccc(C(=O)N[C@H]6CC[C@H](N(C)c7ccc(C#N)c(Cl)c7)CC6)nn5)CC4)cc31)C(=O)N(C1CCC(=O)NC1=O)C2=O (stereo partly drawn) [Compound 202],,25 to 100,
CCn1c2c(c3ccc(OCC(=O)N4CCN(c5ccc(C(=O)N[C@H]6CC[C@H](Oc7ccc(C#N)c(Cl)c7)CC6)nn5)CC4)cc31)C(=O)N(C1CCC(=O)NC1=O)C2=O (stereo partly drawn) [Compound 121],48,25 to 100,
CCn1c2c(c3ccc(OCCOC4CCC5(CC4)CN(c4ccc(C(=O)N[C@H]6CC[C@H](Oc7ccc(C#N)c(Cl)c7)CC6)nn4)C5)cc31)C(=O)N(C1CCC(=O)NC1=O)C2=O (stereo partly drawn) [Compound 152],45,25 to 100,
CCn1c2c(c3cc(OCCN4CCC(C#Cc5ccc(C(=O)NC6C(C)(C)C(Oc7ccc(C#N)c(Cl)c7)C6(C)C)cc5)CC4)ccc31)C(=O)N(C1CCC(=O)NC1=O)C2=O (stereo not drawn) [Compound 139],52,25 to 100,
Cn1c2c(c3ccc(OCC4CCN(c5ccc(C(=O)N[C@H]6CC[C@H](Oc7ccc(C#N)c(Cl)c7)CC6)cn5)CC4)cc31)C(=O)N(C1CCC(=O)NC1=O)C2=O (stereo partly drawn) [Compound 35],,,remaining activity at 0.1 µM [1]: 75%
Cn1c2c(c3ccc(OCCOC4CC5(CCN(c6ccc(C(=O)N[C@H]7CC[C@H](N(C)c8ccc(C#N)c(Cl)c8)CC7)nn6)CC5)C4)cc31)C(=O)N(C1CCC(=O)NC1=O)C2=O (stereo partly drawn) [Compound 171],,25 to 100,
CC1(C)[C@H](NC(=O)c2ccc(N3CCN(CCOc4ccc5c6c(sc5c4)C(=O)N(C4CCC(=O)NC4=O)C6=O)CC3)cn2)C(C)(C)[C@H]1Oc1ccc(C#N)c(Cl)c1 (stereo partly drawn) [Compound 18],,,Androgen Receptor Remaining (%) [5]: 99%
Cn1c2c(c3ccc(OCCOC4CCN(c5ccc(C(=O)N[C@H]6CC[C@H](Oc7ccc(C#N)c(Cl)c7)CC6)nn5)CC4)cc31)C(=O)N(C1CCC(=O)NC1=O)C2=O (stereo partly drawn) [Compound 168],,,remaining activity at 0.1 µM [1]: 20%; DC50 [2]: 10 to 25 nM
CCn1c2c(c3ccc(OCC(C)CN4CCN(c5ccc(C(=O)N[C@H]6CC[C@H](Oc7ccc(C#N)c(Cl)c7)CC6)nn5)CC4)cc31)C(=O)N(C1CCC(=O)NC1=O)C2=O (stereo partly drawn) [Compound 192],,25 to 100,
CCn1c2c(c3ccc(OCC(C)COC4CCN(c5ccc(C(=O)N[C@H]6CC[C@H](Oc7ccc(C#N)c(Cl)c7)CC6)nn5)CC4)cc31)C(=O)N(C1CCC(=O)NC1=O)C2=O (stereo partly drawn) [Compound 36],,10 to 25,
CCn1c2c(c3ccc(OCCCN4CC5(CCN(c6ccc(C(=O)N[C@H]7CC[C@H](Oc8ccc(C#N)c(Cl)c8)CC7)nn6)CC5)C4)cc31)C(=O)N(C1CCC(=O)NC1=O)C2=O (stereo partly drawn) [Compound 96],,10 to 25,Androgen Receptor Remaining (%) [5]: 1%
CCn1c2c(c3ccc(OCCCN4CC5CCC(C4)N5c4ccc(C(=O)N[C@H]5CC[C@H](Oc6ccc(C#N)c(Cl)c6)CC5)nn4)cc31)C(=O)N(C1CCC(=O)NC1=O)C2=O (stereo partly drawn) [Compound 71],77,,
CCn1c2c(c3ccc(OCCOC4CCC5(CC4)CN(c4ccc(C(=O)N[C@H]6CC[C@H](N(C)c7ccc(C#N)c(Cl)c7)CC6)nn4)C5)cc31)C(=O)N(C1CCC(=O)NC1=O)C2=O (stereo partly drawn) [Compound 156],37,25 to 100,
CCn1c2c(c3ccc(OCCN4CCC(C5CCN(c6ccc(C(=O)N[C@H]7CC[C@H](N(C)c8ccc(C#N)c(Cl)c8)CC7)nn6)CC5)CC4)cc31)C(=O)N(C1CCC(=O)NC1=O)C2=O (stereo partly drawn) [Compound 166],47,,
CC1(C)[C@H](NC(=O)c2ccc(N3CCN(CCOc4ccc5c6c(sc5c4)C(=O)N(C4CCC(=O)NC4=O)C6=O)CC3)cn2)C(C)(C)[C@H]1Oc1ccc(C#N)c(Cl)c1 (stereo partly drawn) [Compound 7],,,Androgen Receptor Remaining (%) [5]: 45%; DC50 [2]: 25 to 100 nM
Cn1c2c(c3ccc(NC(=O)CN4CCN(c5ccc(C(=O)N[C@H]6CC[C@H](Oc7ccc(C#N)c(Cl)c7)CC6)nn5)CC4)cc31)C(=O)N(C1CCC(=O)NC1=O)C2=O (stereo partly drawn) [Compound 41],,,remaining activity at 0.1 µM [1]: 81%
CCn1c2c(c3ccc(OCCCN4[C@H](C)CN(c5ccc(C(=O)N[C@H]6CC[C@H](Oc7ccc(C#N)c(Cl)c7)CC6)nn5)C[C@@H]4C)cc31)C(=O)N(C1CCC(=O)NC1=O)C2=O (stereo partly drawn) [Compound 76],78,,
Cn1c2c(c3ccc(OCCOC4CC5(CCN(c6ccc(C(=O)N[C@H]7CC[C@H](N(C)c8ccc(C#N)c(Cl)c8)CC7)nn6)C5)C4)cc31)C(=O)N(C1CCC(=O)NC1=O)C2=O (stereo partly drawn) [Compound 175],,10 to 25,

SMILES,remaining activity at 0.1 µM [3] [%],DC50 [4] [nM],further results
Cn1c2c(c3ccc(NC(=O)CN4CCN(c5ccc(C(=O)N[C@H]6C(C)(C)[C@H](Oc7ccc(C#N)c(Cl)c7)C6(C)C)cn5)CC4)cc31)C(=O)N(C1CCC(=O)NC1=O)C2=O (stereo partly drawn) [Compound 42],,,remaining activity at 0.1 µM [1]: 30%; DC50 [2]: 10 to 25 nM
CCn1c2c(c3ccc(OCCCCN4C5CCC4CN(c4ccc(C(=O)N[C@H]6CC[C@H](Oc7ccc(C#N)c(Cl)c7)CC6)nn4)C5)cc31)C(=O)N(C1CCC(=O)NC1=O)C2=O (stereo partly drawn) [Compound 100],44,25 to 100,
Cn1c2c(c3ccc(OCCN4CCN(c5ccc(C(=O)N[C@H]6C(C)(C)[C@H](Oc7ccc(C#N)c(Cl)c7)C6(C)C)nc5)CC4)cc31)C(=O)N(C1CCC(=O)NC1=O)C2=O (stereo partly drawn) [Compound 9],,,remaining activity at 0.1 µM [1]: 73%; DC50 [2]: > 100 nM
CCn1c2c(c3ccc(OC4CCN(CC5CCN(c6ccc(C(=O)N[C@H]7CC[C@@H](Oc8ccc(C#N)c(Cl)c8)CC7)nn6)CC5)CC4)cc31)C(=O)N(C1CCC(=O)NC1=O)C2=O (stereo partly drawn) [Compound 204],,10 to 25,
CCn1c2c(c3ccc(OCCN4C5CCC4CN(c4ccc(C(=O)N[C@H]6CC[C@H](Oc7ccc(C#N)c(Cl)c7)CC6)nn4)C5)cc31)C(=O)N(C1CCC(=O)NC1=O)C2=O (stereo partly drawn) [Compound 64],40,25 to 100,
CCn1c2c(c3ccc(OCCCN4CCN(c5ccc(C(=O)N[C@H]6C(C)(C)[C@H](Oc7ccc(C#N)c(Cl)c7)C6(C)C)cn5)CC4)cc31)C(=O)N(C1CCC(=O)NC1=O)C2=O (stereo partly drawn) [Compound 20],63,,
Cn1c2c(c3ccc(OCCN4CCN(c5ccc(C(=O)N[C@H]6C(C)(C)[C@H](Oc7ccc(C#N)c(Cl)c7)C6(C)C)cn5)CC4)cc31)C(=O)N(C1CCC(=O)NC1=O)C2=O (stereo partly drawn) [Compound 6],,,remaining activity at 0.1 µM [1]: 31%; DC50 [2]: 25 to 100 nM
Cn1c2c(c3ccc(OCCN4CCC5(CC4)CN(c4ccc(C(=O)N[C@H]6CC[C@H](Oc7ccc(C#N)c(Cl)c7)CC6)nn4)C5)cc31)C(=O)N(C1CCC(=O)NC1=O)C2=O (stereo partly drawn) [Compound 88],,,remaining activity at 0.1 µM [1]: 10%; DC50 [2]: 10 to 25 nM
CCn1c2c(c3ccc(OCC(=O)NCC4CCN(c5ccc(C(=O)N[C@H]6CC[C@H](N(C)c7ccc(C#N)c(Cl)c7)CC6)nn5)CC4)cc31)C(=O)N(C1CCC(=O)NC1=O)C2=O (stereo partly drawn) [Compound 142],49,25 to 100,
CCn1c2c(c3ccc(OCCN4CC=C(c5ccc(C(=O)N[C@H]6CC[C@H](Oc7ccc(C#N)c(Cl)c7)CC6)nn5)CC4)cc31)C(=O)N(C1CCC(=O)NC1=O)C2=O (stereo partly drawn) [Compound 191],,< 10,
Cn1c2c(c3ccc(OCCOC4CC5(CCN(c6ccc(C(=O)N[C@H]7CC[C@H](Oc8ccc(C#N)c(Cl)c8)CC7)nn6)CC5)C4)cc31)C(=O)N(C1CCC(=O)NC1=O)C2=O (stereo partly drawn) [Compound 170],,,DC50 [2]: 25 to 100 nM
Cn1c2c(c3ccc(OCCCCOC4CCN(c5ccc(C(=O)N[C@H]6CC[C@H](Oc7ccc(C#N)c(Cl)c7)CC6)nn5)CC4)cc31)C(=O)N(C1CCC(=O)NC1=O)C2=O (stereo partly drawn) [Compound 187],,,DC50 [2]: 25 to 100 nM
Cn1c2c(c3ccc(NC(=O)CN4CCCN(c5ccc(C(=O)N[C@H]6CC[C@H](Oc7ccc(C#N)c(Cl)c7)CC6)nn5)CC4)cc31)C(=O)N(C1CCC(=O)NC1=O)C2=O (stereo partly drawn) [Compound 68],,,remaining activity at 0.1 µM [1]: 81%
CCn1c2c(c3ccc(OCCOC4CC5(CCN(c6ccc(C(=O)N[C@H]7CC[C@H](N(C)c8ccc(C#N)c(Cl)c8)CC7)nn6)CC5)C4)cc31)C(=O)N(C1CCC(=O)NC1=O)C2=O (stereo partly drawn) [Compound 148],30,10 to 25,
CCCn1c2c(c3ccc(OCCCN4CCN(c5ccc(C(=O)N[C@H]6C(C)(C)[C@H](Oc7ccc(C#N)c(Cl)c7)C6(C)C)cc5)CC4)cc31)C(=O)N(C1CCC(=O)NC1=O)C2=O (stereo partly drawn) [Compound 23],88,,
Cn1c2c(c3ccc(OCCCN4CCC5(CC4)CCN(c4ccc(C(=O)N[C@H]6CC[C@H](N(C)c7ccc(C#N)c(Cl)c7)CC6)nn4)CC5)cc31)C(=O)N(C1CCC(=O)NC1=O)C2=O (stereo partly drawn) [Compound 198],,< 10,
CCn1c2c(c3ccc(OCC(=O)N4CCC5(CCN(c6ccc(C(=O)N[C@H]7CC[C@H](Oc8ccc(C#N)c(Cl)c8)CC7)nn6)C5)C4)cc31)C(=O)N(C1CCC(=O)N(CO)C1=O)C2=O (stereo partly drawn) [Compound 135],17,25 to 100,
CCn1c2c(c3ccc(OCCCN4CCC(C5CCN(c6ccc(C(=O)N[C@H]7CC[C@H](Oc8ccc(C#N)c(Cl)c8)CC7)nn6)CC5)CC4)cc31)C(=O)N(C1CCC(=O)NC1=O)C2=O (stereo partly drawn) [Compound 157],18,10 to 25,
Cn1c2c(c3ccc(OCCCN4CCN(c5ccc(C(=O)N[C@H]6C(C)(C)[C@H](Oc7ccc(C#N)c(Cl)c7)C6(C)C)nc5)CC4)cc31)C(=O)N(C1CCC(=O)NC1=O)C2=O (stereo partly drawn) [Compound 11],,,remaining activity at 0.1 µM [1]: 73%
